Holding throughout (assay type): cell-based
One assay addresses T1, hTRPM2 R302A/R358A (Homo sapiens, UniProt O94759, R302A/R358A).
T1 construct: expressed in transfected cells; host or cells: HEK293T cells, transient transfection (Lipofectamine 3000), GFP cDNA co-transfected as a separate marker
As to the kind of experiment: Whole-cell patch-clamp, N-terminal ADPR-binding site mutant. The conditions noted are these: ADPR. How it is done: (§1) Human embryonic kidney 293 (HEK293) cells with tetracycline-inducible expression of human TRPM2 channel (hTRPM2) were cultured in a mixed medium containing DMEM/ F-12 (Gibco, USA) and 10% fetal bovine serum (Gibco, USA) as well as blasticidin (50 μg/ml, Invivogen, USA) and zeocin (0.4 mg/ml, Invivogen, USA). The expression of hTRPM2 was induced by substituting blasticin and zeocin for tetracycline (1 μg/ml, Sigma, USA) 24-48 hours before use. TRPM2 channel mutants were transiently expressed in HEK293T cells by transfection with using Lipofectamine 3000. Briefly, HEK293T cells were transiently transfected with cDNAs encoding the mutant hTRPM2 channel. The cDNA for GFP was co-transfected as a marker for identification of the transfected cells for electrophysiological experiments 16-24 hours after transfection. […]
(§2) Coronal cortical slices were transferred into the recording chamber and continuously perfused at room temperature with ACSF oxygenated with 95% O2 and 5% CO2. […] For whole-cell or single channel recordings from transfected HEK-293T cells, the coverslips were placed in a culture dish (35 × 35 mm, Sorfa) containing HEPES based extracellular solution (ECS) and recorded by patch-clamp technique. […] Each coverslip was recorded only once with different drug exposures. […]

The next assay addresses T2, TRPM2-ΔN/ΔC (Homo sapiens, UniProt O94759).
T2 construct: expressed in transfected cells; host or cells: HEK293T cells, transient transfection, GFP cDNA co-transfected as a separate marker
As to the kind of experiment: Whole-cell patch-clamp, truncation mutant. The note with it: ADPR 500 μM. How it is done:
as §1, §2
(Patch clamp records ionic current or voltage across a cell membrane.)

For assay [1], the target named is T3, hTRPM2 K928A/D1069A double mutant (Homo sapiens, UniProt O94759, D1069A/K928A).
T3 construct: expressed in transfected cells; host or cells: HEK293T cells, transient transfection, GFP cDNA co-transfected as a separate marker
T3 sequence (O94759 whole entry K928A/D1069A): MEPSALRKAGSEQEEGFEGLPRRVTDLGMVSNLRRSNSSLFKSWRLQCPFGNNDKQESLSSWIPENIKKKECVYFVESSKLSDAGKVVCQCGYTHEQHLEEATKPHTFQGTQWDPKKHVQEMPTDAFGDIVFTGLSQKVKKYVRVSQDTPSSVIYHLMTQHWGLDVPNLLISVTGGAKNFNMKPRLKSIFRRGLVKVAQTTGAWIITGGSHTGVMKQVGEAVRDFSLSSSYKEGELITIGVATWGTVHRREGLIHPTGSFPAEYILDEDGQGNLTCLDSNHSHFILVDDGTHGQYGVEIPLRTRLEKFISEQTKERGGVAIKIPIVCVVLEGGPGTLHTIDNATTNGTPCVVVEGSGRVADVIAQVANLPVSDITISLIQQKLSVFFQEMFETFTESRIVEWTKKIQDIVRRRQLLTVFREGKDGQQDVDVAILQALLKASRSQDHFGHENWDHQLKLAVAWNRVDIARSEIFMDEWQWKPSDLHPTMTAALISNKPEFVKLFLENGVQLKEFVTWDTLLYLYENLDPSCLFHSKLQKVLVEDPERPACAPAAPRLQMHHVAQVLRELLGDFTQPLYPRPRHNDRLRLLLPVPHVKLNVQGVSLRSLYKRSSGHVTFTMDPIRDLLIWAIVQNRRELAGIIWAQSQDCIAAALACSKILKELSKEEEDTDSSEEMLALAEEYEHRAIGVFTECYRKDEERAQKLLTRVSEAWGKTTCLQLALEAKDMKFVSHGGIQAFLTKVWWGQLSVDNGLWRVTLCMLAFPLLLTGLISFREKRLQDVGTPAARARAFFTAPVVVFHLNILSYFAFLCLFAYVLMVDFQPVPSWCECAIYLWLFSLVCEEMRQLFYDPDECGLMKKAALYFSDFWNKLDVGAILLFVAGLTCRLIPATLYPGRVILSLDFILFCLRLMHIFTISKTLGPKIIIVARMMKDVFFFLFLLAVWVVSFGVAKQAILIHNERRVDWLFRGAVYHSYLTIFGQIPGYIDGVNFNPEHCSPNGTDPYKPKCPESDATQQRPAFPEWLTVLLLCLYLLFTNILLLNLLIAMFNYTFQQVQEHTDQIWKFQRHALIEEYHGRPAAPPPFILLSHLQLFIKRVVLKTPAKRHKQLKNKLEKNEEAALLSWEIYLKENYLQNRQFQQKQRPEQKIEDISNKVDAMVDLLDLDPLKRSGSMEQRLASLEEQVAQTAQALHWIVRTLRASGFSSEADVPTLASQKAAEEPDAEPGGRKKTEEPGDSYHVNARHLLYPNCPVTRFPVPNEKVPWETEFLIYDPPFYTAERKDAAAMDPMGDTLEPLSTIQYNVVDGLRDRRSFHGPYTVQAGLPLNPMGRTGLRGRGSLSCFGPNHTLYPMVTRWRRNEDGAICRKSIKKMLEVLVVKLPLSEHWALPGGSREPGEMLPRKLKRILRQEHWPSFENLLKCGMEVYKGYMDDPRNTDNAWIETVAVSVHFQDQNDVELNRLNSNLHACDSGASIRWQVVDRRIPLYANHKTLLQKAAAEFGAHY
As to the kind of experiment: Whole-cell patch-clamp, bilirubin-binding cavity double mutant. The conditions noted are these: intracellular ADPR 500 μM. How it is done:
as §1, §2

T2 sequence (O94759 1-1449 isoform O94759-2): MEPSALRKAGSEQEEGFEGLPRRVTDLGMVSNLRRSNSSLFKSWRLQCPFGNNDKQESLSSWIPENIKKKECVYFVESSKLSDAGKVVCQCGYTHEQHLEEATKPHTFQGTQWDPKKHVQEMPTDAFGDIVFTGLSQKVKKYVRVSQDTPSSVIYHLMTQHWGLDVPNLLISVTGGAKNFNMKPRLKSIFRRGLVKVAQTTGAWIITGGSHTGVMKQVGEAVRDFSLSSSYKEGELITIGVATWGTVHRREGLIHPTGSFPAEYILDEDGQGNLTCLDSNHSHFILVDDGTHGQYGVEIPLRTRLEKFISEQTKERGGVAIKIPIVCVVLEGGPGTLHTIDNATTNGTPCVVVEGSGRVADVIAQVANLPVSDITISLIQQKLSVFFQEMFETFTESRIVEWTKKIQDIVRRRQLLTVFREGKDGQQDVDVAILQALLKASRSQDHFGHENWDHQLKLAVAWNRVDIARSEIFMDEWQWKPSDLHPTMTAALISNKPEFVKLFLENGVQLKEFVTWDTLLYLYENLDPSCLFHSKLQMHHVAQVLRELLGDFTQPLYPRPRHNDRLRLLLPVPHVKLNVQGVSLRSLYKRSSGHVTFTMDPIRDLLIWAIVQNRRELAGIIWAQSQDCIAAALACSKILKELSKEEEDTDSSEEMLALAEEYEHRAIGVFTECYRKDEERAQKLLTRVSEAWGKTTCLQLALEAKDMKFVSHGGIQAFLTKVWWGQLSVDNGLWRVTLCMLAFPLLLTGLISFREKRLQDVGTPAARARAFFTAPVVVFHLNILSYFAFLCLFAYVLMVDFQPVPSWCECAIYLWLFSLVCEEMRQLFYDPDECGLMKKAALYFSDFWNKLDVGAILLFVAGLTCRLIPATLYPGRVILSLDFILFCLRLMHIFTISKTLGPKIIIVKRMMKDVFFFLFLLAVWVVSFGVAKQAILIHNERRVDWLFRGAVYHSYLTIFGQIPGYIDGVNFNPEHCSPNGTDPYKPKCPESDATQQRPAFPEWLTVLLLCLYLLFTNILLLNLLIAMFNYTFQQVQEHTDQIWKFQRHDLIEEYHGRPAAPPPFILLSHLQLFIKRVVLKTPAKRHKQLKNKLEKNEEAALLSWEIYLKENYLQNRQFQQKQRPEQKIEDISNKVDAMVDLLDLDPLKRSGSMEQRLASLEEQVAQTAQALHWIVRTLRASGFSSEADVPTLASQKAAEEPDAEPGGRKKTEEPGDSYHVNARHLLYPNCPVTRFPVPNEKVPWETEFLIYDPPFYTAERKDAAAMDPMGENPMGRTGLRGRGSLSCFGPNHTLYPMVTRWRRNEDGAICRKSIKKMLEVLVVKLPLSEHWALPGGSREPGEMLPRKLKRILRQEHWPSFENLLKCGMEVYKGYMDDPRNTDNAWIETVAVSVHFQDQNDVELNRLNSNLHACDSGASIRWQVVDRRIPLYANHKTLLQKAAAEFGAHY
T1 sequence (O94759 whole entry R302A/R358A): as the sequence (O94759 whole entry K928A/D1069A) above, with R302A, R358A, A928K, A1069D counted along it

Consider `Nc1ncnc2c1ncn2C1O[C@H](COP(=O)([O-])OP(=O)(O)OC[C@H]2OC(O)[C@H](O)[C@@H]2O)[C@@H](O)[C@H]1O.O.O.[Na+]` (stereo partly drawn) [ADPR, Adenosine 5ʹ-diphosphoribose sodium salt], for which the entries for the “activation of mutant TRPM2 currents” value (at hTRPM2 R302A/R358A; at TRPM2-ΔN/ΔC; in assay [1]) were “failed to evoke currents”, “eliminated the activation” and “perfectly retained their agonist capacity”, respectively.

The values are drawn from paper PMC10191619, “Bilirubin gates the TRPM2 channel as a direct agonist to exacerbate ischemic brain damage” (Neuron, 2023).
